Columns and labels:
Assay in all cases: selective drug sensitivity score (sDSS, relative to normal bone marrow) (sDSS (score)); higher = more potent and effective on the cell line relative to normal bone marrow cells
Details in all cases: 72 h
[1] = test system: MHH-CALL-2
[2] = test system: NALM-16
[3] = test system: TANOUE
[4] = test system: JURKAT
[5] = test system: PF-382
[6] = test system: COG-LL-394h
[7] = test system: CCRF-HSB2
[8] = test system: COG-LL-317
[9] = test system: 697
[10] = test system: COG-LL-355h
[11] = test system: RCH-ACV
[12] = test system: PEER
[13] = test system: MOLT-16
[14] = test system: SEM cells
[15] = test system: COG-LL-402h
[16] = test system: KASUMI-2
[17] = test system: MHH-CALL-3
[18] = test system: COG-LL-319h
[19] = test system: KASUMI-9
[20] = test system: ALL-SIL
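Also: ALL cell lines in 384-well plates, five doses spanning 10,000-fold, each plate scaled between vehicle and 100 µmol/L benzalkonium chloride controls, sDSS an adapted area-under-curve metric.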

SMILES: Cn1c(=O)n(-c2ccc(C(C)(C)C#N)cc2)c2c3cc(-c4cnc5ccccc5c4)ccc3ncc21 [Dactolisib] (top concentration 1000 nM)
- selective drug sensitivity score [1]: 9.36
- selective drug sensitivity score [2]: 0.86
- selective drug sensitivity score [3]: -2.54
- selective drug sensitivity score [4]: 7.26
- selective drug sensitivity score [5]: 9.36
- selective drug sensitivity score [6]: -3.94
- selective drug sensitivity score [7]: 11.1
- selective drug sensitivity score [8]: 2.26
- selective drug sensitivity score [9]: 15.8
- selective drug sensitivity score [10]: 3.46
- selective drug sensitivity score [11]: 21.3
- selective drug sensitivity score [12]: 5.06
- selective drug sensitivity score [13]: 16.1
- selective drug sensitivity score [14]: 10.4
- selective drug sensitivity score [15]: 5.36
- selective drug sensitivity score [16]: 9.06
- selective drug sensitivity score [17]: 3.26
- selective drug sensitivity score [18]: -7.44
- selective drug sensitivity score [19]: 10.3
- selective drug sensitivity score [20]: 4.96

SMILES: Nc1nccc(-c2c(-c3ccc(F)cc3)ncn2C2CCCCC2)n1 (top concentration 10000 nM)
- selective drug sensitivity score [1]: 4.1
- selective drug sensitivity score [2]: 0.9
- selective drug sensitivity score [3]: 0
- selective drug sensitivity score [4]: 0.1
- selective drug sensitivity score [5]: 0.8
- selective drug sensitivity score [6]: 0
- selective drug sensitivity score [7]: 3.4
- selective drug sensitivity score [8]: 4.4
- selective drug sensitivity score [9]: 4.8
- selective drug sensitivity score [10]: 0
- selective drug sensitivity score [11]: 13.5
- selective drug sensitivity score [12]: 1.4
- selective drug sensitivity score [13]: 2.6
- selective drug sensitivity score [14]: 1.2
- selective drug sensitivity score [15]: 0.7
- selective drug sensitivity score [16]: 12.6
- selective drug sensitivity score [17]: 0.1
- selective drug sensitivity score [18]: 2.5
- selective drug sensitivity score [19]: 1.7
- selective drug sensitivity score [20]: 1.5

SMILES: CNC(=O)c1ccccc1Sc1ccc2c(/C=C/c3ccccn3)n[nH]c2c1 [Axitinib] (top concentration 10000 nM)
- selective drug sensitivity score [1]: -0.34
- selective drug sensitivity score [2]: -2.34
- selective drug sensitivity score [3]: -2.94
- selective drug sensitivity score [4]: 5.06
- selective drug sensitivity score [5]: 6.96
- selective drug sensitivity score [6]: 2.96
- selective drug sensitivity score [7]: 11
- selective drug sensitivity score [8]: 8.26
- selective drug sensitivity score [9]: 14.7
- selective drug sensitivity score [10]: -0.74
- selective drug sensitivity score [11]: 11.1
- selective drug sensitivity score [12]: 17.3
- selective drug sensitivity score [13]: 13.1
- selective drug sensitivity score [14]: 13.1
- selective drug sensitivity score [15]: 5.86
- selective drug sensitivity score [16]: 6.56
- selective drug sensitivity score [17]: -2.44
- selective drug sensitivity score [18]: 7.96
- selective drug sensitivity score [19]: 8.36
- selective drug sensitivity score [20]: 20.1

SMILES: CN(C)Cc1c(C(=O)NCCOc2ccc(C(=O)NO)cc2)oc2ccccc12 [Abexinostat] (top concentration 10000 nM)
- selective drug sensitivity score [1]: 9.06
- selective drug sensitivity score [2]: 0.56
- selective drug sensitivity score [3]: -7.54
- selective drug sensitivity score [4]: 1.66
- selective drug sensitivity score [5]: 2.86
- selective drug sensitivity score [6]: 3.86
- selective drug sensitivity score [7]: 6.36
- selective drug sensitivity score [8]: 2.36
- selective drug sensitivity score [9]: 6.96
- selective drug sensitivity score [10]: 3.36
- selective drug sensitivity score [11]: 10.6
- selective drug sensitivity score [12]: 6.16
- selective drug sensitivity score [13]: 5.66
- selective drug sensitivity score [14]: 5.46
- selective drug sensitivity score [15]: 13.4
- selective drug sensitivity score [16]: 8.66
- selective drug sensitivity score [17]: 15.4
- selective drug sensitivity score [18]: 8.36
- selective drug sensitivity score [19]: 8.26
- selective drug sensitivity score [20]: 6.76

SMILES: COc1ccc(-c2nc(N3CCOCC3)c3sc(CN(C)c4ncc(C(=O)NO)cn4)cc3n2)cn1 [Fimepinostat (CUDC-907)] (top concentration 10000 nM)
- selective drug sensitivity score [1]: 10.3
- selective drug sensitivity score [2]: 1.78
- selective drug sensitivity score [3]: -14.8
- selective drug sensitivity score [4]: 0.98
- selective drug sensitivity score [5]: 2.58
- selective drug sensitivity score [6]: 3.28
- selective drug sensitivity score [7]: 1.68
- selective drug sensitivity score [8]: 7.58
- selective drug sensitivity score [9]: 9.88
- selective drug sensitivity score [10]: 7.28
- selective drug sensitivity score [11]: 10.9
- selective drug sensitivity score [12]: 1.98
- selective drug sensitivity score [13]: 8.68
- selective drug sensitivity score [14]: 8.68
- selective drug sensitivity score [15]: 10.9
- selective drug sensitivity score [16]: 8.88
- selective drug sensitivity score [17]: 10.9
- selective drug sensitivity score [18]: -3.82
- selective drug sensitivity score [19]: 10.7
- selective drug sensitivity score [20]: 8.98

SMILES: COc1ccc(C[C@H](NC(=O)[C@H](C)NC(=O)CN2CCOCC2)C(=O)N[C@@H](Cc2ccccc2)C(=O)[C@@]2(C)CO2)cc1 [ONX-0914] (top concentration 10000 nM)
- selective drug sensitivity score [1]: 0.5
- selective drug sensitivity score [2]: -2
- selective drug sensitivity score [3]: -4.2
- selective drug sensitivity score [4]: -4.4
- selective drug sensitivity score [5]: 6.5
- selective drug sensitivity score [6]: 6.2
- selective drug sensitivity score [7]: 9.9
- selective drug sensitivity score [8]: 4.7
- selective drug sensitivity score [9]: -5
- selective drug sensitivity score [10]: 8.7
- selective drug sensitivity score [11]: -4.4
- selective drug sensitivity score [12]: 7.7
- selective drug sensitivity score [13]: 2.5
- selective drug sensitivity score [14]: 7.2
- selective drug sensitivity score [15]: 2
- selective drug sensitivity score [16]: 0.6
- selective drug sensitivity score [17]: 7.2
- selective drug sensitivity score [18]: -0.8
- selective drug sensitivity score [19]: -4.1
- selective drug sensitivity score [20]: 3.8

SMILES: O=C(O)c1ccc(-c2c[nH]c3ncc(-c4ccccc4)cc23)cc1C1CCCC1 (top concentration 10000 nM)
- selective drug sensitivity score [1]: 11.7
- selective drug sensitivity score [2]: -1.44
- selective drug sensitivity score [3]: -1.44
- selective drug sensitivity score [4]: 0.16
- selective drug sensitivity score [5]: -0.34
- selective drug sensitivity score [6]: -1.44
- selective drug sensitivity score [7]: 3.16
- selective drug sensitivity score [8]: 2.36
- selective drug sensitivity score [9]: 0.96
- selective drug sensitivity score [10]: -0.44
- selective drug sensitivity score [11]: 5.76
- selective drug sensitivity score [12]: 2.56
- selective drug sensitivity score [13]: 3.66
- selective drug sensitivity score [14]: 7.56
- selective drug sensitivity score [15]: -1.44
- selective drug sensitivity score [16]: -1.44
- selective drug sensitivity score [17]: 3.76
- selective drug sensitivity score [18]: 1.36
- selective drug sensitivity score [19]: 0.66
- selective drug sensitivity score [20]: 4.26

SMILES: Cn1ncnc1[C@H]1c2n[nH]c(=O)c3cc(F)cc(c23)N[C@@H]1c1ccc(F)cc1 [Talazoparib] (top concentration 1000 nM)
- selective drug sensitivity score [1]: 9.48
- selective drug sensitivity score [2]: -2.82
- selective drug sensitivity score [3]: -4.92
- selective drug sensitivity score [4]: -0.22
- selective drug sensitivity score [5]: -3.62
- selective drug sensitivity score [6]: -0.62
- selective drug sensitivity score [7]: 7.68
- selective drug sensitivity score [8]: 19.7
- selective drug sensitivity score [9]: 15.8
- selective drug sensitivity score [10]: 8.28
- selective drug sensitivity score [11]: 10.7
- selective drug sensitivity score [12]: -3.72
- selective drug sensitivity score [13]: 19.1
- selective drug sensitivity score [14]: 0.78
- selective drug sensitivity score [15]: 11.1
- selective drug sensitivity score [16]: 13.2
- selective drug sensitivity score [17]: 20.3
- selective drug sensitivity score [18]: 21.3
- selective drug sensitivity score [19]: 8.98
- selective drug sensitivity score [20]: 3.48

SMILES: COc1nc(N)nc2c1ncn2[C@@H]1O[C@H](CO)[C@@H](O)[C@@H]1O [Nelarabine] (top concentration 10000 nM)
- selective drug sensitivity score [1]: -4.22
- selective drug sensitivity score [2]: -9.52
- selective drug sensitivity score [3]: -10.2
- selective drug sensitivity score [4]: -0.12
- selective drug sensitivity score [5]: -1.62
- selective drug sensitivity score [6]: -9.72
- selective drug sensitivity score [7]: 1.88
- selective drug sensitivity score [8]: 4.58
- selective drug sensitivity score [9]: 1.58
- selective drug sensitivity score [10]: -6.22
- selective drug sensitivity score [11]: 1.98
- selective drug sensitivity score [12]: -5.52
- selective drug sensitivity score [13]: -7.22
- selective drug sensitivity score [14]: -10.2
- selective drug sensitivity score [15]: -2.32
- selective drug sensitivity score [16]: -10.2
- selective drug sensitivity score [17]: -3.72
- selective drug sensitivity score [18]: 4.78
- selective drug sensitivity score [19]: 1.98
- selective drug sensitivity score [20]: -2.82
